Experiment: Solution stability of ^90Y-B at −78° C., RCP by radio-HPLC
Type: physicochemical
Conditions: ^90Y-B prepared with GA; for RCP (%) t = 0 / RCP (%) t = 3 days / RCP (%) t = 7 days: degassed, second stabilizer (20 mg AA, 20 mg DSA, 10 mg 2,3,4-THBA, 10 mg HABA) added post-labeling; for RCP (%) change: second stabilizer added post-labeling, t = 0 to 7 days
Protocol: The integrity of a radiopharmaceutical is measured by the radiochemical purity (RCP) of the radiolabeled compound using ITLC or more preferably HPLC. The advantage of using HPLC is that radio-impurities caused by radiolytic degradation can be separated from the radiopharmaceutical under optimized chromatographic conditions. […] The radiopharmaceutical compositions of this invention are effective in maintaining the long-term stability of samples that have been frozen, thawed, and re-tested periodically for 7 days.
The initial RCP of a radiopharmaceutical is largely dependent on radiolabeling conditions such as pH, heating temperature and time. Once a radiopharmaceutical is prepared in high yield, the stability of the radiopharmaceutical composition is measured by the` RCP change of the radiopharmaceutical over a certain period of time. For comparison purposes, sodium gentisate or sodium ascorbate was often used as the reference since they have been used in various radiopharmaceutical formulations.
HPLC method 2 used a HP-1100 HPLC system with a UV/visible detector (λ=220 nm), an IN-US radio-detector, and a Zorbax C18 column (4.6 mm×250 mm, 80 Å pore size). The flow rate was 1 mL/min with a gradient mobile phase starting from 92% solvent A (0.025 M ammonium acetate buffer, pH 6.8) and 8% solvent B (acetonitrile) at 0 min to 90% solvent A and 10% solvent B at 18 min, followed by an isocratic wash using 40% of solvent A and 60% solvent B from 19 to 25 min.
The ITLC method used Gelman Sciences silica-gel ITLC paper strips and 1:1 mixture of acetone and saline as eluant. By this method, the radiolabeled compounds migrate to the solvent front while [^90Y]/^177Lu]colloid and [^90Y]/^177Lu]acetate remain at the origin. […]
The 0.5 M ammonium acetate buffer (pH 8.0) was first degassed under vacuum for 1-2 min. COMPOUND B and gentisic acid (sodium salt, GA) were dissolved in the degassed buffer to give a concentration of 100 μg/mL for COMPOUND B and 20 mg/mL for GA. The resulting solution was immediately degassed under vacuum for another 1-2 min. To a clean sealed 5 mL vial was added 1.0 mL of the degassed 0.5 M ammonium acetate buffer (pH 8.0) containing 100 μg COMPOUND B and 10 mg GA. The solution was degassed again under vacuum. Upon addition of ˜20 μL of ^90YCl3 solution (˜20 mCi) in 0.05 N HCl, the reaction mixture was heated at 100° C. for 5 min. After cooling to room temperature, a sample of the resulting solution was diluted 20-fold with saline containing gentisate (10 mg/mL), and was then analyzed by HPLC (Method 2, injection volume=1-2 μL) and ITLC. […] To the solution above was added 0.5 mL of sodium ascorbate solution (40 mg/mL in 0.5 M ammonium acetate buffer, pH=7.4). The resulting mixture was then kept in a dry-ice box (−78° C.) for 7 days. Samples were analyzed at t=0, 3 and 7 days.
The 0.5 M ammonium acetate buffer (pH 8.0) was first degassed under vacuum for 1-2 min. COMPOUND B and gentisic acid (sodium salt, GA) were dissolved in the degassed buffer to give a concentration of 100 μg/mL for COMPOUND B and 20 mg/mL for GA. The resulting solution was immediately degassed under vacuum for another 1-2 min. To a clean sealed 5 mL vial was added 1.0 mL of the degassed 0.5 M ammonium acetate buffer (pH 8.0) containing 100 μg COMPOUND B and 10 mg GA. The solution was degassed again under vacuum. Upon addition of ˜20 μL of ^90YCl3 solution (˜20 mCi) in 0.05 N HCl, the reaction mixture was heated at 100° C. for 5 min. After cooling to room temperature, a sample of the resulting solution was diluted 20-fold with saline containing gentisate (10 mg/mL), and was then analyzed by HPLC (Method 2, injection volume=1-2 μL) and ITLC. […] To the solution above was added 0.5 mL of 2,3,4-trihydroxybenzoic acid solution (20 mg/mL in 0.5 M ammonium acetate buffer, pH=6.5). The resulting mixture was then kept in a dry-ice box (−78° C.) for 7 days. Samples were analyzed at t=0, 3 and 7 days. […]

Molecule: 2,4-disulfonatobenzeneamine [DSA]
- RCP (%) t = 0: 94.4%
- RCP (%) t = 3 days: 94.8%
- RCP (%) t = 7 days: 94.5%
- RCP (%) change: 0.1%

Molecule: O=C(O)c1ccc(O)c(O)c1O [2,3,4-THBA, 2,3,4-trihydroxybenzoic acid]
- RCP (%) t = 0: 94.2%
- RCP (%) t = 3 days: 93.6%
- RCP (%) t = 7 days: 93.9%
- RCP (%) change: 0.3%
